Source: US20250352518A1, “A BENZIMIDAZOLE COMPOUND WITH ANTIHELMINTHIC ACTIVITY FOR USE IN REVERSING, ARRESTING OR SLOWING DOWN CELLULAR AGEING IN A VERTEBRATE SUBJECT” (RAVAN BIO LIMITED, priority 2022, published 2025)

How the values were obtained:
[1] = tested on: post-confluent NHEK cells; assay: Growth of re-cultured post-confluent (cell-cell contact growth arrested) NHEK's; format: cell-based, human
[2] = tested on: post-confluent NHEK cells; assay: as above; format: cell-based, human; settings: for concentration causing optimal cell growth: post-confluent NHEK
Source text: Neonatal human epidermal foreskin keratinocytes (NHEKs) were used to test the ability of compounds to reverse, arrest or slow down cellular ageing. These cells typically undergo approximately 35 cell divisions before the Hayflick limit is reached but they can be induced to undergo premature senescence and, what has been understood to be, irreversible growth arrest earlier than this by induction of cell-cell contact growth inhibition when cultured at high cell density/to confluence (Poumay & Pittelkow 1995 J Inv Dermatol 104, p 271-276). The inventors were thus inspired to culture post-confluent cells and assess the effect of test compounds on the growth, telomere loss and secretion of inflammatory factors by such cells. An experimental schematic is provided as FIG. 1. 1.1 Culture of Early Passage NHEK's in the Presence and Absence of y27632 Pooled donor neonatal NHEK's (Cat No C-12005, Lot No 456Z001.1, PromoCell GmBH), serum-free PromoCell Keratinocyte Growth Medium 2 (KSFM, Cat No C20011. Lot No 472M197), CaCl2) (Lot No 471055) and Supplements (Lot No 472M013) were all obtained from PromoCell GmBH. NHEK's were thawed directly into a single T75 in 20 mls of complete KSFM (CaCl2 & Supplements), incubated over night at 37° C., 5% CO2 and the medium changed the following day. After 3 days the cells were 80% confluent and were passaged (Ist) using 0.05% Trypsin+EDTA (Gibco) into ×2 T75 flasks at a split ratio of 1:4. After overnight incubation at 37° C., 5% CO2, the cultures were at 30% confluence and 10 μM Y27632 (Cat No 688000, Lot No 2884132, Merck) was added to one of the flasks. […] Fresh T75 flasks were seeded with 5.0×10^5 cells from each in their respective medium. […] Fresh T75 flasks were seeded, as described previously, and also 1.2×10^4 NHEK cells/well were seeded into 24 well plates, incubated overnight to allow cell attachment, and the following subsequently added to separate wells: • A. NHEK in complete KSFM • B. NHEK+Y27632 in complete KSFM • C. Y27632 treated NHEK transferred to complete KSFM (Y27632 Removed) • D. NHEK transferred to complete KSFM+500 nM Tadalafil • E. NHEK transferred to complete KSFM+750 nM Tadalafil • F. NHEK transferred to complete KSFM+1000 nM Tadalafil • G. NHEK transferred to complete KSFM+1250 nM Tadalafil • H. NHEK transferred to complete KSFM+50 nM Fenbendazole • I. NHEK transferred to complete KSFM+100 nM Fenbendazole • J. NHEK transferred to complete KSFM+150 nM Fenbendazole • K. NHEK transferred to complete KSFM+200 nM Fenbendazole All drugs were added 24 hours after seeding. […] FIG. 2B is an example of the appearance of post-confluent cells.
Post-confluent NHEK's (FIG. 2B) were subsequently passaged (4th) into a fresh 24 well plate using a split ratio of 1 in 4 in 2 mls of fresh complete KSFM. These were left overnight to attach and the same compounds added (as shown in A-K of 1.1) followed by incubation for a further 24 hours and subsequently photographed.

[3] = Canine case studies: biological age by breed-specific telomere length (DNA-My-Dog); format: in vivo; settings: for reduction in biological age: versus chronological age
Experimental: In 2017, a […] (D.O.B Jan. 5, 2008) female Lhasa Apso/Jack Russell/Shih Tzu cross-breed (confirmed by genetic breed analysis: DNA-My-Dog) with a body mass of 9 Kg, was treated with 0.6 gm/day of 22.2% Fenbendazole (Panacur® granules) which was given orally for 3 consecutive days/week for 1 month and this cycle was repeated every 3rd month giving 4 cycles/annum providing a total of 16×1 month treatment cycles spread over a period of 4 yrs up to the present day.
Subject C2A's chronological age was verified by microchip implantation date using the Petlog database and, in March 2022, a cheek epithelium swab was sent to DNA-My-Dog for genetic assessment of breed composition and biological age by analysis of breed-specific telomere length. The results, returned on the 30 Mar. 2022, reported a biological age of 3 yrs old. Three more treatment cycles were subsequently administered and a repeat biological age telomere test carried out on the 30 Sep. 2022 which also returned a biological age of 3 yrs old. […] Translating these findings to humans, a 14 yr old Lhasa Apso has an equivalent human age of about 72 whereas a 3 yr old has an equivalent human age of about 28. This indicates a potential reduction in human age of 44 yrs which would equate to a 61% reduction of biological age in humans.
In 2017, a 4 yr old Jack Russell/Poodle/Maltese cross-breed (Confirmed by genetic breed analysis: DNA-My-Dog) with a body mass of 9.2 Kg was treated with 1.0 gm/day of 22.2% Fenbendazole Panacur® granules for 3 days per week and 4 days without. The dosing schedule of 3 days with, 4 days without treatment per week was continued for 3 months after which the dose was reduced to 0.6 gm/day of Panacur® and treatment alternated between 1 month with and 1 month without for 19 months providing a total of 11×1 month treatment cycles over the whole time period. After this, treatment was discontinued for 2 years and 5 months up to 12 May 2022 when a cheek swab was taken for analysis of biological age and this was repeated 5 months later on the 30 Sep. 2022.
The initial reason for treating this animal was that it had been diagnosed with an anal sac adenocarcinoma and, at the time, it was decided to explore the use of Fenbendazole as an alternative treatment. […] Subject C2B's birth date was May 2014 giving a chronological age of 8 yrs which was verified by microchip implantation date using the Petlog database. Following the outlined treatment with Fenbendazole, in April 2022, a cheek epithelium swab was sent to DNA-My-Dog for assessment of breed composition and biological age by analysis of breed-specific telomere length. The result, returned on the 12 May 2022, reported a biological age of 1 yr old indicating a reduction in biological age of 7 yrs. which is equivalent to ˜90% reduction in biological age. […] After a further gap of 5 months without treatment, on the 30 Sep. […] However, unlike subject C2A, no treatment was given during this period so the most likely explanation is that the efficacy time-limit of the initial treatment has been exceeded.

[4] = dog C2A findings translated to equivalent human age

COC(=O)Nc1nc2ccc(Sc3ccccc3)cc2[nH]1 [Fenbendazole, methyl 5-(phenylthio)-2-benzimidazole carbamate]
number of viable cells (Via-1 Assay) following withdrawal of drug ([1]; treatment P3-P5 only, withdrawn following passage 6, 5 days, FIG. 5): 9.7×10^4 cells/ml
number of viable cells (Via-1 Assay) ([1]; treatment continued for passages P3-P6, 5 days after passage 6, FIG. 5): 9.5×10^4 cells/ml
continued growth of post-confluent NHEK's (phase contrast) ([2]; passage 4, 24 hours with compound, 10 μM Y27632, 500-1250 nM Tadalafil, 50-200 nM Fenbendazole, FIG. 3): all exhibited cell growth
concentration causing optimal cell growth ([2]; cultured for a further 24 hrs, FIG. 4): 100 to 150 nM
concentration causing optimal cell growth ([2]; passage 4, 24 hours, FIG. 3): 100 to 150 nM
potential reduction in human age [3, 4]: 44 yrs
reduction of biological age in humans [3, 4]: 61%
biological age (repeat test) ([3]; dog C2A, 30 Sep. 2022, after three more treatment cycles): 3 yrs
biological age ([3]; dog C2A, chronological age 14 yrs, result 30 Mar. 2022, 0.6 gm/day Panacur granules 3 days/week, 1 month cycles over 4 yrs): 3 yrs
reduction in biological age ([3]; dog C2A): 11 yrs
reduction in biological age ([3]; dog C2A, over 4 years): ~80%
biological age (repeat test) ([3]; dog C2B, 30 Sep. 2022, further 5 months without treatment): 3 yrs
biological age ([3]; dog C2B, chronological age 8 yrs, result 12 May 2022, 19 months treatment then 2 yrs 5 months without): 1 yr
